Here are results for four compounds from EP0104596A2, “Furoindole derivatives” (TAISHO PHARMACEUTICAL CO. LTD, priority 1982, dated 1984).

Some results are limits rather than exact numbers.

Format in all cases: in vivo
For data set [1], the system named is male rats of Wistar strain. As to the kind of experiment: Acute oral toxicity (lethality) in rats. The conditions noted are these: 10 male Wistar rats.
Data set [2] relates to male ddY mice. As to the kind of experiment: Acetic acid writhing method (analgesic effect). The conditions noted are these: Mus musculus, po, 30 minutes before i.p. 0.7 % acetic acid, writhes counted 10 to 20 minutes after injection, read-out: Analgesic action (ED50) Acetic acid writhing method. The method, then: (1) Acetic Acid Writhing Method [Koster, Anderson and De Beer: Fed. Proc., 18, 412(1959)]
10 male ddY mice weighing 19 - 23 g were used in testing each compound. The test compounds were administered orally 30 minutes before in the intraperitoneal injection (0.1 ml/ 10 g ) of 0.7 % acetic acid. The number of writhes were counted in each mouse during a period spanning 10 to 20 minutes after the acetic acid injection.
The percent inhibition was calculated as compared with the number of writhes in the control group, and the ED50 values were calculated from the inhibitory percent.
(In general: In writhing tests, fewer writhes than in controls are read as antinociception.)

The subject of data set [3] is male ddY mice. Kind of data set: Tail pressure method (analgesic effect). The conditions noted are these: Mus musculus, po, pain threshold raised more than 50 % = positive, measured every 30 minutes for 120 minutes, read-out: Analgesic action (ED50) Tail pressure method. The protocol: (2) Tail Pressure Method [Takagi and Kameyama: Yakugaku Zasshi, 78, 553(1958)]
10 male ddY mice weighing 20 - 25 g were used in testing each compound. The pressure stimulus was applied to the base of the mouse tail. The test compounds were administered orally and the pain threshold was measured every 30 minutes for 120 minutes.
Animals of which post-drug pain threshold raised more than 50 % as compared with its pre-drug threshold were regarded as positive for the analgesic activity, and the ED50 values were calculated from the positive percent.

The subject of the next data set is male Wistar rats. Kind of data set: Randall & Selitto method (analgesic effect, brewer's yeast inflamed paw). The conditions noted are these: Rattus norvegicus, po, 2 hours after subplantar 20 % brewer's yeast, pain threshold every 1 hour for 4 hours, read-out: Analgesic action (ED50) Randall & Selitto method. The protocol:
(3) Randall & Selitto Method [Randall and Selitto: Arch. Int. Pharmacodyn. 111, 409(1957)]
6 male Wistar rats weighing 90 - 110 g were used in testing each compound. The pain threshold was measured with an analgesic meter (Ugo Basile). The test compounds were adminstered orally 2 hours after the subplantar injection(0.1 ml/rat) of 20 % brewer's yeast suspension into the right hind paw, and the pain threshold was measured every 1 hour for 4 hours.
Animals of which post-drug pain threshold raised more than 50 % as compared with the threshold in control group were regarded as positive for the analgesic activity, and the ED50 values were calculated from the positive percent.

The test system of a further data set is male S.D. rats. As to the kind of experiment: Adjuvant-induced arthritic pain (analgesic effect). The conditions noted are these: Rattus norvegicus, po, Mycobacterium butyricum polyarthritis, pain response every 1 hour for 5 hours, read-out: Analgesic action (ED50) Adjuvant-induced arthritic pain method. The protocol: (4) Adjuvant-induced Arthritic Pain [Kuzuna and Kawai: Chem. Pha^rm. Bull., ^23, 1184(1975)]
6 male S.D. rats weighing 160 - 200 g were used in testing each compound. Polyarthritis was induced by the intradermal injection (0.1 ml/rat) of 0.5 % Mycobacterium butyricum suspension into the distal portion of the tail. The pain stimulus was applied by a gentle flection of the right tarso-tibial joints repeatedly 5 times at intervals 4 to 5 seconds, the vocalization following the pain stimulus was regarded as pain response.

As for `CCCCC(CC)C(=O)n1c2cc(C(F)(F)F)ccc2c2oc(C(=O)N3CCOCC3)cc21` (stereo not shown) [Example 1, 4-(2-ethylhexanoyl)-2-morpholinocarbonyl-6-trifluoromethyl-furo-[3,2-b]-indole], in data set [1] (1000 mg/kg orally), the death result is given as “no death was observed”.

For the compound `CC(C)OC(=O)n1c2cc(C(F)(F)F)ccc2c2oc(C(=O)N3CCOCC3)cc21` [Example 2, 4-isopropoxycarbonyl-2-morpholinocarbonyl-6-trifluoromethyl-furo-[3,2-b]indole], the death entry in data set [1] (1000 mg/kg orally) is recorded as “no death was observed”.

Regarding `CC(C)CC(=O)n1c2cc(C(F)(F)F)ccc2c2oc(C(=O)N3CCOCC3)cc21` [Example 3, 4-isobutylcarbonyl-2-morpholinocarbonyl-6-trifluoromethyl-furo[3,2-b]indole], the death result in data set [1] (2000 mg/kg orally) is “no death was observed”.

By ED50 is commonly meant the dose that gives a 50% effect, or the effect in half of the subjects. As for `O=C(c1cc2[nH]c3cc(C(F)(F)F)ccc3c2o1)N1CCOCC1` [R: -H, 2-morpholinocarbonyl-6-trifluoromethyl-4H-furo[3,2-b]indole], the ED50 in the data set with male ddY mice [2], with male ddY mice [3], with male Wistar rats and with male S.D. rats was over 100 mg/kg each time.
